According to patent US20230337668A1, “COMPOSITION” (GIVAUDAN SA, priority 2020, published 2023):

System: Bacillus subtillis
Experiment: microorganisms counting in inoculated fish matrix (fish model)
Conditions: D14, 25° C., positive control at 0.3%, average of two determinations
Description: Fish matrix was made of fish and water (50/50), without preservatives. The matrix was homogenized in a blade mixer grinder and then sterilized at 121° C. for 20 minutes, prior the tests.
Blends were added at 0.5 % into the matrix. Matrices without preservatives (0.5 % of NaCl 0.9%) and matrices with conventional chemical preservatives (0.3% of sodium lactate or potassium nitrite, separately) were used as negative and positive control, respectively.
Each matrix type was portioned into sterile flasks and inoculated with 3 Log CFU/g of different microorganisms, separately. Each flask corresponds to one sample at a given date of analysis.
The inoculated matrices were incubated at 25° C.
The counting of the microorganisms was determined in specific agar medium.

O=N[O-].[K+] [Potassium nitrite]
Bacillus subtillis spores (Bacillus subtillis totaux - Bacillus subtillis vegetative cells): 2.39 Log CFU/g | Bacillus subtillis totaux (vegetative cells + spores): 2.60 Log CFU/g

CC(O)C(=O)[O-].[Na+] (stereo not shown) [Sodium lactate]
Bacillus subtillis spores (Bacillus subtillis totaux - Bacillus subtillis vegetative cells): 2.35 Log CFU/g | Bacillus subtillis totaux (vegetative cells + spores): 2.90 Log CFU/g
